# Measured values as given in US9074235B2, “Method for evaluating the improvement of skin elasticity using a mimetic dermis” (AMOREPACIFIC CORPORATION, priority 2010, dated 2015).
# Experiments:
# [1] = test system: dermal mimics (glycated collagen with human neonatal fibroblasts); experiment: Evaluation of skin elasticity-improving effect using dermal mimics (three-dimensional images); assay type: cell-based; conditions: observed about 10 minutes after separation from culture insert
# Method: (1) 40 μl of 10× P buffer (DMEM (Dulbecco's Modified Eagle Medium (DMEM powder, Gibco, USA)), a Ham's F-12 nutrient mixture (F-12 powder, Gibco, USA), 4 ml of an antibiotic-antifungal agent (PSF, Gibco, USA) in 400 ml of sterile distilled water, 40 μl of reconstitution buffer (obtained by dissolving 2.2 g of NaHCO3 and 4.77 g of HEPES in 100 ml of 0.05M NaOH, and filtering the solution) and 2 μl of 5 M NaOH were added to an Epi-tube and sufficiently mixed.
# (2) 320 μl of an aqueous solution of normal collagen or an aqueous solution of glycated collagen is added to and well mixed with the mixture of step (1) and using a pipette.
# (3) 10^4 human neonatal fibroblasts (HDFn, Cascade Biologics, USA) are added to and well mixed with the solution of step (2) using a pipette so that the fibroblasts are uniformly distributed in the solution.
# (4) A culture insert (12 mm, Transwell®, Corning, USA) is placed in a 12-well culture dish, and the mixture is placed in the culture insert and is allowed to react at 37° for 30 minutes so that the aqueous collagen solution is hardened.
# (5) After the collagen has been completely hardened, fibroblast culture medium (M106, Cascade Biologics, USA) is added to both the inside and outside of the culture insert and incubated overnight. Then, the dermal mimic is incubated for in about one week while the medium is replaced at 3-day intervals. In this process, dermal remodeling occurs due to the interaction between the fibroblasts and the collagen fibers.
# Specifically, in this Example, the following collagens were prepared: non-glycated collagen (normal collagen); collagen glycated by treatment with 62.5 mM of ribose; collagen glycated by treatment with 62.5 mM of ribose together with 10 ppm of tocopherol; and collagen glycated by treatment with 62.5 mM of ribose together with 1 ppm of DPHP. Herein, the ribose used was obtained by dissolving D-ribose (Sigma, USA) in water and filtering the solution through a 0.2 μm filter (Minisart® sartorious stedim biotech, Germany). […]
# [2] = test system: collagen gel with fibroblasts; experiment: Collagen gel contraction assay (two-dimensional); assay type: cell-based, human; conditions: collagen glycated with ribose at 62.5, 125 and 250 mM
# Method: Specifically, the dermal mimics were prepared according to the method of Reference Example 1, and the glycated collagen solution used in step (2) of the preparation method of Reference Example 1 was obtained by treating collagen with ribose at concentrations of 0, 62.5, 125 and 250 mM to induce collagen glycation. In addition, the ribose used was obtained by dissolving D-ribose (Sigma, USA) in water and filtering the solution through a 0.2 μm filter (Minisart® sartorious stedim biotech, Germany).
# A specific method for glycation of collagen is as follows. D-ribose was added to a solution of collagen (obtained by dissolving type I collagen (Sigma, USA) in 0.1% acetic acid to a final concentration of 3 mg/ml) at specific concentrations (62.5, 125 and 250 mM) in a clean bench for preventing the contamination of collagen, and the mixture was placed in a rotation mixer rotatable at 360°, after which the mixture was allowed to react at room temperature for 3 days to induce glycation of the collagen.
# In addition, for comparison, a collagen gel contraction assay which is a two-dimensional method was carried out by culturing a collagen gel, obtained by mixing fibroblasts with collagen glycated with the above-described concentrations of ribose, in a general culture dish, and obtaining a digital image of the cultured collagen gel.
molecule,measurement,setting,value
CCCCCCCCCCCCCCCC(=O)O[C@@H]1C[C@@H](C(=O)O)N(C(=O)CCCCCCCCCCCCCCC)C1 [DPHP],breakdown of the dermal mimics (shape/height on three-dimensional image),[1]; collagen glycated with 62.5 mM ribose together with 1 ppm DPHP,breakdown of the dermal mimics was inhibited
"O=C[C@H](O)[C@H](O)[C@H](O)CO [ribose, D-ribose]",shape of the dermal mimics (three-dimensional image),[1]; collagen glycated with 62.5 mM ribose alone,broken down
same,contraction of collagen gels (two-dimensional digital image),[2],not contracted
tocopherol,breakdown of the dermal mimics (shape/height on three-dimensional image),[1]; collagen glycated with 62.5 mM ribose together with 10 ppm tocopherol,breakdown of the dermal mimics was inhibited
